Laboratory results taken from patent US20030082135A1, “Pathway of RANTES-mediated chemokine synthesis in astrocytes and methods of use therefor” (priority 2001, published 2003).

What was measured:
[1] = test system: primary neonatal mouse astrocyte cultures; test: RNase protection assay (RPA) for chemokine/cytokine transcripts in astrocyte cultures; assay type: cell-based
Experimental: Astrocyte isolation and culture. […] RNA isolation and RNase protection assay (RPA). […] RNase protection assays (RPA) for chemokine message were conducted with multi-probe templates according to the manufacture's protocol (RiboQuant assay kit, BD-PharMingen, San Diego, Calif.). Gels were scanned and radioactive bands quantitated using a phosphoimager (Molecular Dynamics, Sunnyvale, Calif.). Levels of uniformly expressed housekeeping genes large ribosomal subunit protein 32-3A (L32) or glyceraldehyde-3-phosphate dehydrogenase (GAPDH), were used for normalization. The value of each chemokine receptor band divided by the value of the indicated housekeeping gene band in the same sample yielded the relative intensity. Normalized receptor expression represents the ratio of the relative intensity following treatment with chemokine versus the relative intensity of medium alone. Treatment with pharmacological inhibitors. Astrocytes were washed and resuspended in serum-and insulin-free complete medium and starved overnight. Cells were treated at 37° C. for 1 h with 100 ng/ml Pertussis toxin (PTx) before addition of RANTES or IL-1. […] The cells were harvested after a 3 h incubation with RANTES; RNA was prepared and assayed by RPA.

astrocytes = test: ELISA of KC, TNF-α and MCP-1 protein in astrocyte culture supernatants; assay type: cell-based, mouse
Experimental: ELISA. For production of supernatants, 2×10^4 astrocytes were cultured in 96 well plates with medium or 100 ng/ml RANTES. Supernatants were collected after the indicated times. ELISA assays for KC and MCP-1 were performed as in Luo, Y., et al. 1999. J Immunol 163:3985, and for TNF-α as in Abromson-Leeman, et al. 2001. Eur J Immunol 31:527. Protein levels were determined using recombinant KC, MCP-1, or TNF-α (R & D Systems, Minneapolis, Minn.) as standards.

PKA = PKA activity assay on lysates of treated astrocytes; assay type: cell-based, mouse
Experimental: PKA activity assay. PKA activity was determined using a commercially available kit (Calbiochem, San Diego, Calif.) according to manufacturer's recommendations. Primary mouse astrocytes were grown in 6-well plates and then stimulated as described and lysed in 100 μl buffer (same buffer used for Western blotting) for 30 min. Five μl of the lysates were incubated with 20 μl PKA reaction mixture at 30° C. for 30 min. The reaction was terminated by adding 10 μl stop solution and ^32P radioactivity was counted.

production of chemokine transcripts by astrocytes from mice deficient for CCR1, CCR2, CCR3, or CCR5 ([1]; 100 ng/ml): specifically responded
expression of TNF-α, RANTES, KC, MIP-1α, MIP-2, and MCP-1 transcripts ([1]; BALB/cJ neonatal astrocytes, chemokine for 6 h): up-regulated
duration of RANTES transcription ([1]; RANTES-induced): greater than 24 h
time after which TNF-α mRNA disappeared ([1]; RANTES-induced): 18 h
time at which TNF-α mRNA was detected ([1]; RANTES-induced): 1.5 h
time at which bands for RANTES and MIP-1α were visible ([1]; RANTES-induced): 3 h
time by which MIP-1α mRNA was down regulated ([1]; RANTES-induced): ≤ 24 h
time of transient production of IL-6 transcripts ([1]; RANTES-induced): 6 to 24 h
transcripts for the chemokine TCA3 ([1]; RANTES-induced, any time point): not detected
time at which RANTES and IL-6 transcripts appear ([1]; after RANTES stimulation): 4 to 8 h
time at which TNF-α, KC, and MIP-2 transcripts were detected ([1]; after RANTES stimulation): 60 to 90 min
time at which bands for MIP-1α and MCP-1 became visible ([1]; after RANTES stimulation): 2 h
expression of TNF-α, RANTES, KC, IL-6, MIP-1α, MIP-2, and MCP-1 transcripts ([1]; astrocytes treated with RANTES, time course): up-regulated
concentration yielding optimal stimulation of transcripts ([1]; preliminary experiments): 100 ng/mL
Substance: RANTES
ability to induce chemokine transcripts after boiling ([1]; boiled for 30 min before incubation with astrocytes): completely destroyed
time at which KC protein reached a plateau (astrocytes; 100 ng/ml RANTES): 1 days
time at which KC protein synthesis was detectable (astrocytes; 100 ng/ml RANTES): ≤ 8 h
time at which KC protein was detected (astrocytes; 100 ng/ml RANTES): 12 h
KC protein concentration in supernatant (astrocytes; 100 ng/ml RANTES, after 16 h): 20 to 30 ng/mL
TNF-α protein level in supernatant (astrocytes; 100 ng/ml RANTES, after 16 h): less than 120 pg/ml
TNF-α protein in culture supernatants (astrocytes; 6 h after RANTES stimulation): not detectable
TNF-α protein in culture supernatants (astrocytes; 12 h after RANTES stimulation): greater than 100 pg/ml
time of peak TNF-α protein levels (astrocytes; RANTES stimulation): 24 h
inhibition of PKA activity (PKA; 100 ng/ml RANTES, 20 min): 60%
time of maximal reduction of PKA kinase activity (PKA; after RANTES stimulation): 10 min
